Measured values taken from patent US20250339569A1, “CARBONIC ANHYDRASE IX LIGANDS” (priority 2021, published 2025).
Like-named read-outs stand apart in the source and are kept apart here. Starred links: 1 amine or outer side, 2 acyl side, 3 side chain; linkers in the order of their positions; H or OH if unused. Positions of bridges follow the written chain, without caps; N, C: chain ends. Non-standard residues stand in square brackets, D forms with d. Residues, ends and D or L forms follow the SMILES beside them. *: point of attachment. NH(CH2)3NH(O2Oc(DOTA)) = O=C(O)CN1CCN(CC(=O)O)CCN(CC(=O)NCCOCCOCC(=O)NCCCN*)CCN(CC(=O)O)CC1; X63 = O=C1CC[C@@H](C(=O)Nc2cccc(C[C@H](N[*:1])C(=O)[*:2])c2)N1; DOTA = O=C(O)CN1CCN(CC(=O)O)CCN(CC(=O)*)CCN(CC(=O)O)CC1; Trp(7-aza) = N[C@@H](Cc1c[nH]c2ncccc12)C(=O)O; Phe(4-NH2) = Nc1ccc(C[C@H](N)C(=O)O)cc1; Desaminotyrosyl = O=C(CCc1ccc(O)cc1)*; mXylylene = c1cc(C[*:1])cc(C[*:2])c1; X2 = O=C(CN1CCC(N[*:1])CC1)[*:2]; X52 = NS(=O)(=O)c1cnn(CC(=O)*)c1; X1 = O=C(CN1CCN([*:1])CC1)[*:2]; αMeL = CC(C)C[C@](C)(N)C(=O)O; Isovaleryl = CC(C)CC(=O)*; Fluoroacetyl = O=C(CF)*; Hexanoyl = CCCCCC(=O)*; AEEA = NCCOCCOCC(=O)O; Sar = CNCC(=O)O

Molecular target: T1, CAIX-expressing human HT-29 colorectal cancer cells (Homo sapiens, UniProt Q16790)
T1 construct: CAIX-expressing human HT-29 colorectal cancer cells; host or cells: HT-29 human colorectal cancer cells
Experiment: FACS binding assay (IC50 determination, competition with tracer 3BP-2776 or 3BP-4149)
Method: In order to determine binding of compounds according to the present invention to CAIX-expressing cells, a FACS binding assay was established.
CAIX-expressing human HT-29 colorectal cancer cells (DSMZ, RRID: CVCL_0320) were cultured in McCoys's 5A modified medium (Biochrom, #F1015) including 10% fetal calf serum (FCS), 2 mM L-glutamine, 100 U/ml penicillin and 100 μg/mL streptomycin. Cells were detached with Accutase (Biolegend, #423201) and washed in FACS buffer (PBS including 1% FCS). Cells were diluted in FACS buffer to a final concentration of 500.000 cells per ml. 200 μL of the cell suspension were transferred to a u-shaped non-binding 96-well plate (Greiner) and cells were washed in ice-cold FACS buffer.
When biotinylated compounds were used an additional incubation step with 1 μg/mL APC-Streptavidin (Miltenyi; #130-106-791) in 50 μL FACS buffer for 30 minutes on ice was performed.
Cells were washed twice with ice-cold FACS buffer and analyzed in an Attune NxT flow cytometer (Thermo Fisher). Median fluorescence intensities (MFI) of the APC/Cy5-channel were calculated by Attune NxT software. MFI values were plotted against peptide concentration and four parameter logistic (4PL) curve fitting and EC50/pEC50 or IC50/pIC50 calculations were performed using ActivityBase software.

[1] = FACS competition on HT-29 cells, Tracer ID 3BP-2776 (10 nM, biotin-labeled), 4° C., 1 hour, read-out: pIC50 category (activity) (converted)
[2] = FACS binding assay, HT-29 cells, competition with tracer 3BP-2776 (10 nM, biotin-labeled), 4° C., 1 hour, read-out: pIC50 category (activity) (converted)

Row | IC50 [1] [nM] | Compound | also measured
1 | 10 to 79.4 | CC(C)C[C@@H]1NC(=O)[C@H](Cc2c[nH]c3ccccc23)NC(=O)[C@H](CC(=O)O)NC(=O)[C@H]2CCCN2C(=O)[C@H](CCC(=O)O)NC(=O)[C@@H](NC(=O)CCc2ccc(O)cc2)CSCc2cccc(c2)CSC[C@@H](C(N)=O)NC(=O)[C@H](CO)NC(=O)[C@H](Cc2c[nH]c3ccccc23)NC(=O)[C@H]([C@@H](C)O)NC1=O [3BP-3731] (Desaminotyrosyl-CE[dP]DWLTWSC-NH2; linker 1-10 via mXylylene) | 
2 |  | CC(C)C[C@@H]1NC(=O)[C@H](Cc2ccc(NC(=O)Cn3cc(S(N)(=O)=O)cn3)cc2)NC(=O)[C@H](CC(=O)O)NC(=O)[C@H]2CCCN2C(=O)[C@H](CCC(=O)O)NC(=O)[C@@H](NC(=O)[C@H](CCC(N)=O)NC(=O)CN2CCN(C(=O)CN3CCN(CC(=O)O)CCN(CC(=O)O)CCN(CC(=O)O)CC3)CC2)CSCc2cccc(c2)CSC[C@@H](C(N)=O)NC(=O)[C@H](CO)NC(=O)[C@H](Cc2c[nH]c3ccccc23)NC(=O)[C@H]([C@@H](C)O)NC1=O [3BP-4482] ({DOTA}-[X1]QCE[dP]D[Phe(4-NH2)](X52)LTWSC-NH2; linker 3-12 via mXylylene) | IC50 (FACS binding assay, HT-29 cells, competition with tracer 3BP-4149 (3 nM, Cy5-labeled), 4° C., 1 hour, read-out: pIC50 category (activity) (converted)): 100 to 794 nM
3 | 100 to 794 | CC(=O)N[C@H](C(=O)N[C@@H](Cc1ccc(O)cc1)C(=O)N[C@H]1CSCc2cccc(c2)CSC[C@@H](C(N)=O)NC(=O)[C@H](CCC(N)=O)NC(=O)[C@H](Cc2c[nH]c3ccccc23)NC(=O)[C@@H](C)NC(=O)[C@H](CC(C)C)NC(=O)[C@H](Cc2c[nH]c3ccccc23)NC(=O)[C@H](CC(=O)O)NC(=O)CN(C)C(=O)[C@H](CCC(=O)O)NC1=O)C(C)C [3BP-3309] (Ac-VYCE[Sar]DWL[dA]WQC-NH2; linker 3-12 via mXylylene) | 
4 | < 10 | CC(C)CC(=O)N[C@@H](Cc1ccccc1)C(=O)N[C@H]1CSCc2cccc(c2)CSC[C@@H](C(N)=O)NC(=O)[C@H](CCC(=O)NCCCNC(=O)COCCOCCNC(=O)CN2CCN(CC(=O)O)CCN(CC(=O)O)CCN(CC(=O)O)CC2)NC(=O)[C@H](Cc2c[nH]c3ccccc23)NC(=O)[C@H]([C@@H](C)O)NC(=O)[C@H](CC(C)C)NC(=O)[C@H](Cc2c[nH]c3ccccc23)NC(=O)[C@H](CC(=O)O)NC(=O)[C@H]2CCCN2C(=O)[C@H](CCC(=O)O)NC1=O [3BP-3742] (Isovaleryl-FCE[dP]DWLTWE(NH(CH2)3NH(O2Oc(DOTA)))C-NH2; linker 2-11 via mXylylene) | 
5 |  | CC(C)C[C@]1(C)NC(=O)[C@H](Cc2c[nH]c3ccccc23)NC(=O)[C@H](CC(=O)O)NC(=O)[C@H]2CCCN2C(=O)[C@H](CCC(=O)O)NC(=O)[C@@H](NC(=O)[C@H](Cc2ccc(O)cc2)NC(=O)[C@@H](NC(=O)CN2CCC(NC(=O)CN3CCN(CC(=O)O)CCN(CC(=O)O)CCN(CC(=O)O)CC3)CC2)C(C)C)CSCc2cccc(c2)CSC[C@@H](C(N)=O)NC(=O)[C@H](CO)NC(=O)[C@H](Cc2c[nH]c3ccccc23)NC(=O)[C@H]([C@@H](C)O)NC1=O [3BP-4106] ({DOTA}-[X2]VYCE[dP]DW[αMeL]TWSC-NH2; linker 4-13 via mXylylene) | IC50 [2]: 10 to 79.4 nM
6 | 10 to 79.4 | CC(C)CC(=O)N[C@@H](CCC(=O)O)C(=O)N[C@H]1CSCc2cccc(c2)CSC[C@@H](C(N)=O)NC(=O)[C@H](CCC(=O)NCCCNC(=O)COCCOCCNC(=O)CN2CCN(CC(=O)O)CCN(CC(=O)O)CCN(CC(=O)O)CC2)NC(=O)[C@H](Cc2c[nH]c3ccccc23)NC(=O)[C@H]([C@@H](C)O)NC(=O)[C@H](CC(C)C)NC(=O)[C@H](Cc2c[nH]c3ccccc23)NC(=O)[C@H](CC(=O)O)NC(=O)[C@H]2CCCN2C(=O)[C@H](CCC(=O)O)NC1=O [3BP-3872] (Isovaleryl-ECE[dP]DWLTWE(NH(CH2)3NH(O2Oc(DOTA)))C-NH2; linker 2-11 via mXylylene) | 
7 | < 10 | CC(=O)N[C@H](C(=O)N[C@@H](Cc1ccc(O)cc1)C(=O)N[C@H]1CSCc2cccc(c2)CSC[C@@H](C(=O)NCCOCCOCC(=O)N[C@@H](CCCCNC(=O)CN2CCN(CC(=O)O)CCN(CC(=O)O)CCN(CC(=O)O)CC2)C(N)=O)NC(=O)[C@H](C)NC(=O)[C@H](Cc2c[nH]c3ccccc23)NC(=O)[C@H]([C@@H](C)O)NC(=O)[C@H](CC(C)C)NC(=O)[C@H](Cc2c[nH]c3ccccc23)NC(=O)[C@H](CC(=O)O)NC(=O)[C@H]2CCCN2C(=O)[C@H](CCC(=O)O)NC1=O)C(C)C [3BP-3474, Ac-Val-Tyr-[Cys(3MeBn)-Glu-pro-Asp-Trp-Leu-Thr-Trp-Ala-Cys]-O2Oc-Lys(DOTA)-NH2] (Ac-VYCE[dP]DWLTWAC[AEEA]K(DOTA)-NH2; linker 3-12 via mXylylene) | 
8 |  | CC(C)C[C@@H]1NC(=O)[C@H](Cc2ccc(NC(=O)CF)cc2)NC(=O)[C@H](CC(=O)O)NC(=O)[C@H]2CCCN2C(=O)[C@H](CCC(=O)O)NC(=O)[C@@H](NC(=O)[C@H](Cc2ccc(O)cc2)NC(=O)[C@@H](NC(=O)CN2CCC(NC(=O)CN3CCN(CC(=O)O)CCN(CC(=O)O)CCN(CC(=O)O)CC3)CC2)C(C)C)CSCc2cccc(c2)CSC[C@@H](C(N)=O)NC(=O)[C@H](CO)NC(=O)[C@H](Cc2c[nH]c3ccccc23)NC(=O)[C@H]([C@@H](C)O)NC1=O [3BP-4358] ({DOTA}-[X2]VYCE[dP]D[Phe(4-NH2)](Fluoroacetyl)LTWSC-NH2; linker 4-13 via mXylylene) | IC50: 100 to 794 nM
9 | < 10 | CCCCCC(=O)N[C@H](C(=O)N[C@@H](Cc1ccc(O)cc1)C(=O)N[C@H]1CSCc2cccc(c2)CSC[C@@H](C(N)=O)NC(=O)[C@H](CCC(N)=O)NC(=O)[C@H](Cc2c[nH]c3ccccc23)NC(=O)[C@H]([C@@H](C)O)NC(=O)[C@H](CC(C)C)NC(=O)[C@H](Cc2c[nH]c3ccccc23)NC(=O)[C@H](CC(=O)O)NC(=O)CNC(=O)[C@H](CCC(=O)O)NC1=O)C(C)C [3BP-3107] (Hexanoyl-VYCEGDWLTWQC-NH2; linker 3-12 via mXylylene) | 
10 |  | CC(C)C[C@@H]1NC(=O)[C@H](Cc2c[nH]c3ccccc23)NC(=O)[C@H](CC(=O)O)NC(=O)[C@H]2CCCN2C(=O)[C@H](CCC(=O)O)NC(=O)[C@@H](NC(=O)[C@H](Cc2ccc(O)cc2)NC(=O)[C@@H](NC(=O)CN2CCC(NC(=O)CN3CCN(CC(=O)O)CCN(CC(=O)O)CCN(CC(=O)O)CC3)CC2)C(C)C)CSCc2cccc(c2)CSC[C@@H](C(N)=O)NC(=O)[C@H](CO)NC(=O)[C@H](Cc2c[nH]c3ncccc23)NC(=O)[C@H]([C@@H](C)O)NC1=O [3BP-4159] ({DOTA}-[X2]VYCE[dP]DWLT[Trp(7-aza)]SC-NH2; linker 4-13 via mXylylene) | IC50 [2]: < 10 nM
11 | 100 to 794 | CSCC[C@H](NC(C)=O)C(=O)N[C@H](C(=O)N[C@@H](Cc1ccc(O)cc1)C(=O)N[C@H]1CSCc2cccc(c2)CSC[C@@H](C(N)=O)NC(=O)[C@H](CCC(N)=O)NC(=O)[C@H](Cc2c[nH]c3ccccc23)NC(=O)[C@H]([C@@H](C)O)NC(=O)[C@H](CC(C)C)NC(=O)[C@H](Cc2c[nH]c3ccccc23)NC(=O)[C@H](CC(=O)O)NC(=O)CNC(=O)[C@H](CCC(=O)O)NC1=O)C(C)C [3BP-2836] (Ac-MVYCEGDWLTWQC-NH2; linker 4-13 via mXylylene) | 
12 |  | CC(C)C[C@@H]1NC(=O)[C@H](Cc2cccc(NC(=O)[C@@H]3CCC(=O)N3)c2)NC(=O)[C@H](CC(=O)O)NC(=O)[C@H]2CCCN2C(=O)[C@H](CCC(=O)O)NC(=O)[C@@H](NC(=O)[C@H](Cc2ccc(O)cc2)NC(=O)[C@@H](NC(=O)CN2CCC(NC(=O)CN3CCN(CC(=O)O)CCN(CC(=O)O)CCN(CC(=O)O)CC3)CC2)C(C)C)CSCc2cccc(c2)CSC[C@@H](C(N)=O)NC(=O)[C@H](CO)NC(=O)[C@H](Cc2c[nH]c3ccccc23)NC(=O)[C@H]([C@@H](C)O)NC1=O [3BP-4241] ({DOTA}-[X2]VYCE[dP]D[X63]LTWSC-NH2; linker 4-13 via mXylylene) | IC50 [2]: 10 to 79.4 nM
